Key:
[1] = molecular target: Rho-associated protein kinase 2 (Homo sapiens, UniProt O75116); experiment: Inhibition of human recombinant 6-His-tagged ROCK2 expressed in baculovirus-infected Sf9 cells using LCB-AKRRRLSSLRA-NH2 as substrate after 25 mins by TR-FRET assay
[2] = Inhibition of PKA (unknown origin); parameters: species or system Homo sapiens
[3] = molecular target: Mitogen-activated protein kinase 9 (Homo sapiens, UniProt P45984); experiment: Inhibition of JNK2 (unknown origin)
CYP1A2 = molecular target: T1, CYP1A2 (Homo sapiens, UniProt P05177); experiment: Inhibition of CYP1A2 (unknown origin) at 10 uM relative to control; assay type: ADME
T1 sequence (P05177 whole entry): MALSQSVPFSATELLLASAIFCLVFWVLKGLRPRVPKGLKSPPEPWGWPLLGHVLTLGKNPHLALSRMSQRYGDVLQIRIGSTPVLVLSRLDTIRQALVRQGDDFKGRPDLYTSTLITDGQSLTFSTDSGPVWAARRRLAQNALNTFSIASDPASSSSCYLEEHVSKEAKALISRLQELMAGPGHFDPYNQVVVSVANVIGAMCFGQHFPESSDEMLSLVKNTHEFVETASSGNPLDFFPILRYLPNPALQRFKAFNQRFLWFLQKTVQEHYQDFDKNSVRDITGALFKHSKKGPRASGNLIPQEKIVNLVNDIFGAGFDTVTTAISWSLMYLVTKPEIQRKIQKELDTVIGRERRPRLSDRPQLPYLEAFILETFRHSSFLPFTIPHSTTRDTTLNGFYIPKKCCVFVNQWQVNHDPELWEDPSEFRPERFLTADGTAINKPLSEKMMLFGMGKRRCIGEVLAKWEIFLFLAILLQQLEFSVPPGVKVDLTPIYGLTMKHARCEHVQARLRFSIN

CYP3A4 = CYP3A4 (Homo sapiens, UniProt P08684); experiment: Inhibition of CYP3A4 (unknown origin) at 10 uM relative to control; assay type: ADME
[4] = molecular target: Mitogen-activated protein kinase 8 (Homo sapiens, UniProt P45983); experiment: Inhibition of JNK1 (unknown origin)
[5] = molecular target: Mitogen-activated protein kinase 14 (Homo sapiens, UniProt Q16539); experiment: Inhibition of p38alpha (unknown origin)
[6] = molecular target: Serine/threonine-protein kinase MRCK alpha (Homo sapiens, UniProt Q5VT25); experiment: Inhibition of MRCKalpha (unknown origin)
[7] = molecular target: Mitogen-activated protein kinase 10 (Homo sapiens, UniProt P53779); experiment: Inhibition of JNK3 (unknown origin)
[8] = molecular target: Rho-associated protein kinase 1 (Homo sapiens, UniProt Q13464); experiment: Inhibition of ROCK1 (unknown origin)
[9] = Half life in human liver microsomes; assay type: ADME, Microsome
CYP2D6 = CYP2D6 (Homo sapiens, UniProt P10635); experiment: Inhibition of CYP2D6 (unknown origin) at 10 uM relative to control; assay type: ADME
CYP2C9 = CYP2C9 (Homo sapiens, UniProt P11712); experiment: Inhibition of CYP2C9 (unknown origin) at 10 uM relative to control; assay type: ADME
[10] = Inhibition of ROCK in rat A7r5 cells assessed as inhibition of myosin light chain bisphosphorylation by Western blot analysis; assay type: cell-based

Chain of Mitogen-activated protein kinase 9 (P45984 whole entry): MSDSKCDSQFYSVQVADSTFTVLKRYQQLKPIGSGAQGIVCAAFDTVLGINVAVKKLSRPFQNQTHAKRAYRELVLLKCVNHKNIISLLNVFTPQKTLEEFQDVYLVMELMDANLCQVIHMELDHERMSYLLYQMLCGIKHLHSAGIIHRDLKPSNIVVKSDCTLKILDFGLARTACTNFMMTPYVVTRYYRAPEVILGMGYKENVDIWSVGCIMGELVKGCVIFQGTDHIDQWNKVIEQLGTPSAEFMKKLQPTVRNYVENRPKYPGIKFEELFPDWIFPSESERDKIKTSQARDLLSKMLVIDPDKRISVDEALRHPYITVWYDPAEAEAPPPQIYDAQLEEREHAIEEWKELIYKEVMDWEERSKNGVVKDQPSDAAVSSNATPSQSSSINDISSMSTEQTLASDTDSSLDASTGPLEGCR
Chain of CYP3A4 (P08684 whole entry): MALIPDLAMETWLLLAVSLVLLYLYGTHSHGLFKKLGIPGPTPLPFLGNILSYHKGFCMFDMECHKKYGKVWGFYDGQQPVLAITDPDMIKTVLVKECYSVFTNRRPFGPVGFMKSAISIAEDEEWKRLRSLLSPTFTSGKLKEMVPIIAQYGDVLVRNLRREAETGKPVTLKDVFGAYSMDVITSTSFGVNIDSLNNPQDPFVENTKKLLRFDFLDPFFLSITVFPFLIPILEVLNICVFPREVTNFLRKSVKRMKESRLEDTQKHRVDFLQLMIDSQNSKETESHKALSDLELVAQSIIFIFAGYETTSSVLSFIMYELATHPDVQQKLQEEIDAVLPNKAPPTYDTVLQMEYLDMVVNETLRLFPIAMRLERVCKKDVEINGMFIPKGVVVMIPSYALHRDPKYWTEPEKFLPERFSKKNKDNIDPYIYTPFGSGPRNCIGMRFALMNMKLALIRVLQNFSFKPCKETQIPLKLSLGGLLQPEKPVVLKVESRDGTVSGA
Chain of Mitogen-activated protein kinase 10 (P53779 whole entry): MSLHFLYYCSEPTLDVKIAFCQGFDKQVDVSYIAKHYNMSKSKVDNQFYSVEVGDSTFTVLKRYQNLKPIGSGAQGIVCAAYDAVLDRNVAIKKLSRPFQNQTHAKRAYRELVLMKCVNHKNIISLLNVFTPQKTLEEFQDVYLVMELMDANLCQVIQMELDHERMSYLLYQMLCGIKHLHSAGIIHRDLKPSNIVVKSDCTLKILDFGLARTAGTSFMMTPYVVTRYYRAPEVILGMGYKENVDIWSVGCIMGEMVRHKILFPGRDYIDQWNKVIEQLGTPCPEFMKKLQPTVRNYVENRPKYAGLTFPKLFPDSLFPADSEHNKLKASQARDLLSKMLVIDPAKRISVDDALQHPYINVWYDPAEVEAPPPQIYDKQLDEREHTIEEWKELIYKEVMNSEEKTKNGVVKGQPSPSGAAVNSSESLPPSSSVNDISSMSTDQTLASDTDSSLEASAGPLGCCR
Chain of Mitogen-activated protein kinase 8 (P45983 whole entry): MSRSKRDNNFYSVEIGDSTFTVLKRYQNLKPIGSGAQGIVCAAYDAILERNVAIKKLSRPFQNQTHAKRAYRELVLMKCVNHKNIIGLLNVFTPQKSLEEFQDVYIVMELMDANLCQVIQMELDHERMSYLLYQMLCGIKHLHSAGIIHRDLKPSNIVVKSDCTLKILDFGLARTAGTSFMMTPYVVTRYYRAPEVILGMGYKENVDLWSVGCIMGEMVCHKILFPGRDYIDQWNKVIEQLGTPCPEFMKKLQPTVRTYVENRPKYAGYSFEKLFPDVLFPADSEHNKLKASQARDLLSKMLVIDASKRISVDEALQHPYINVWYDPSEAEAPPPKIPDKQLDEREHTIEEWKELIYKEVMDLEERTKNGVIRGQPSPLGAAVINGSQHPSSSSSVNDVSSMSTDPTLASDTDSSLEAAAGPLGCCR
Chain of CYP2D6 (P10635 whole entry): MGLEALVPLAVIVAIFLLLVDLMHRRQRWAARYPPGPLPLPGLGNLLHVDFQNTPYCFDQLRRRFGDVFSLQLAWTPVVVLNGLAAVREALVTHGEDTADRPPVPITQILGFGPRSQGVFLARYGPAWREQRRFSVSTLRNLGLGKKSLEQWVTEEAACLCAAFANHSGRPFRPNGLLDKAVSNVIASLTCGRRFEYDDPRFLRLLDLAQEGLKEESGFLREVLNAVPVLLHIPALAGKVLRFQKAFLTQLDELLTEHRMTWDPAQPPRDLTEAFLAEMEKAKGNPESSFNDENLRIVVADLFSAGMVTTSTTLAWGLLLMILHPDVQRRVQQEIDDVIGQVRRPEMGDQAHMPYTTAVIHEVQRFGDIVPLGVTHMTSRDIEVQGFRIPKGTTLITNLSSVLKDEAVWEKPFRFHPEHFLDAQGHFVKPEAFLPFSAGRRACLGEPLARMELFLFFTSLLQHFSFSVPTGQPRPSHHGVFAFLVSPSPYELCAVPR
Chain of Rho-associated protein kinase 1 (Q13464 whole entry): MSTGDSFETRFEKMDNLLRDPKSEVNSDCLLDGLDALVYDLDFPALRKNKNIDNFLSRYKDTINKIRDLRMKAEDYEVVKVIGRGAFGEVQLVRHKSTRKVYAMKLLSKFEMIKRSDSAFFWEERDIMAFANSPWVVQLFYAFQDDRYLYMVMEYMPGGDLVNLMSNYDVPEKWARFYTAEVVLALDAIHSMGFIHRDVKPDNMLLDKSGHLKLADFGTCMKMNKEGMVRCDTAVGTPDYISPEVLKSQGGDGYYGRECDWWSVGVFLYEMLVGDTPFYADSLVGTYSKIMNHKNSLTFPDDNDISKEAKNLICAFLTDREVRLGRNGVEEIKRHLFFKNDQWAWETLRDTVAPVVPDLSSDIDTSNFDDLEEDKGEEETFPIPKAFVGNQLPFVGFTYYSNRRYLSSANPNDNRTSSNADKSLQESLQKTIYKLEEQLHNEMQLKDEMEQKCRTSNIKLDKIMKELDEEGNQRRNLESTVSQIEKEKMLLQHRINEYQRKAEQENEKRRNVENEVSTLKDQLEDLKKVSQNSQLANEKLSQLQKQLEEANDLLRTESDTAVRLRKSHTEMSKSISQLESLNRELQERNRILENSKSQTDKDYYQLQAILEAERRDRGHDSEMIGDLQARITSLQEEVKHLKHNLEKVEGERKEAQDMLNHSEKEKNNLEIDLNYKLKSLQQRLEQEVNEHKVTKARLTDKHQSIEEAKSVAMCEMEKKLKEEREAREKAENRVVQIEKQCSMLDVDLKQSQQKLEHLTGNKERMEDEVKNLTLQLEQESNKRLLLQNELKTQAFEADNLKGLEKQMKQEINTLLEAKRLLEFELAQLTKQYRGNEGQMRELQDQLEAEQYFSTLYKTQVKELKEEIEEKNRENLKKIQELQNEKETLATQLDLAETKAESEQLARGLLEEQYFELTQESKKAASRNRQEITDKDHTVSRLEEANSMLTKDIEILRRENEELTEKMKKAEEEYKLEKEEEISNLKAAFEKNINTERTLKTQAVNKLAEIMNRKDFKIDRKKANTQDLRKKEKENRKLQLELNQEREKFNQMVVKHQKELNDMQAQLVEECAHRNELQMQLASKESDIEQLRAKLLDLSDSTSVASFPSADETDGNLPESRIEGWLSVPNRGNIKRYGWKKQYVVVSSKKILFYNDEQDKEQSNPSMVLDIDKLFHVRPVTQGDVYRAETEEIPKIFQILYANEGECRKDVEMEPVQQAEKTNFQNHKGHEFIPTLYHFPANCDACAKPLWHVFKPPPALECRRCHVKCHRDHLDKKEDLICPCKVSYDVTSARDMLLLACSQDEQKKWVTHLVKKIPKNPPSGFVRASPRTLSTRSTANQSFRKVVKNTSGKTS
Chain of Rho-associated protein kinase 2 (O75116 whole entry): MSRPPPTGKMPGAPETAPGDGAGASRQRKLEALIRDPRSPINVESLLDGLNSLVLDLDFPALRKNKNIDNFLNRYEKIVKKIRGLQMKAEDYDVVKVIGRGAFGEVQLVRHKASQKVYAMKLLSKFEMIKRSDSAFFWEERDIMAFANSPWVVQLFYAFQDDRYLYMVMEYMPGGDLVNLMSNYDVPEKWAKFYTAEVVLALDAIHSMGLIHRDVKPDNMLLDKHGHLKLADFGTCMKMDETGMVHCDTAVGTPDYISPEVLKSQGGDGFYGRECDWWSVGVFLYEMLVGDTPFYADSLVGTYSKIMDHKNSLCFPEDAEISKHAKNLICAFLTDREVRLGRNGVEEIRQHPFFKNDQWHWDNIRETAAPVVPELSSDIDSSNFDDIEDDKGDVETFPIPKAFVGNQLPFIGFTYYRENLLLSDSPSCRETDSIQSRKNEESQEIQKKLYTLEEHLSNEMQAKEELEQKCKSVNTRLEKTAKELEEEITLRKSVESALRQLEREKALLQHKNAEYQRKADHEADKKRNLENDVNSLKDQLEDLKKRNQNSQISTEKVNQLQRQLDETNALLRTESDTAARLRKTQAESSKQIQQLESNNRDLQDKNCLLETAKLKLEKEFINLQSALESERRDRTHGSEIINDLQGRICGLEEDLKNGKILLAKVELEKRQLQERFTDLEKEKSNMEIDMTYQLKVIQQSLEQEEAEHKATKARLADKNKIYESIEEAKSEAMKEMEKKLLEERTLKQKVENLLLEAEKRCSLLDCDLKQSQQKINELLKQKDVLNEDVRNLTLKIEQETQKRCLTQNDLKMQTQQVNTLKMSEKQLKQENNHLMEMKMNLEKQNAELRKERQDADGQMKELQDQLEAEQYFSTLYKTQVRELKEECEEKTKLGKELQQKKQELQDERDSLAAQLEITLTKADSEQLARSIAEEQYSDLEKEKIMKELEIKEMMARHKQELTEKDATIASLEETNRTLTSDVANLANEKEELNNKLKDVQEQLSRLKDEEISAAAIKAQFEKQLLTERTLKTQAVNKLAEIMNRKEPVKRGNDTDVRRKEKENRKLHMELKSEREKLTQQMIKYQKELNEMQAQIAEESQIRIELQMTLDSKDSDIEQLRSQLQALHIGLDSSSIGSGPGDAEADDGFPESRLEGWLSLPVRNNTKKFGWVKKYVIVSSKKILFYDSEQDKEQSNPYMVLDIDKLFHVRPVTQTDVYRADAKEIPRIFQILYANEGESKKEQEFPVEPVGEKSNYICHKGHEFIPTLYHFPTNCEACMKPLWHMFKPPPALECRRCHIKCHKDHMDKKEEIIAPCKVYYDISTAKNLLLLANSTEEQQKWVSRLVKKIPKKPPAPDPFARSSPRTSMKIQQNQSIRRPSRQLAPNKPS

## O=c1[nH]c([C@@H]2CNC[C@H]2c2ccc(C(F)(F)F)cc2)nc2ccc(-c3cn[nH]c3)cc12
[1]
  IC50: 2 nM
[2]
  IC50: 6 nM

## COc1ccc(C[C@H](N)c2nc3ccc(-c4cn[nH]c4)cc3c(=O)[nH]2)cc1OC
[1]
  IC50: 39 nM
[2]
  IC50: 38 nM

## COc1ccc(C(N)c2nc3ccc(-c4cn[nH]c4)cc3c(=O)[nH]2)cc1 (stereo unspecified)
[3]
  IC50: > 1000 nM
CYP1A2
  inhibition at 10 µM: -1%
CYP3A4
  inhibition at 10 µM: 40%
[4]
  IC50: > 1000 nM
[1]
  IC50: 43 nM
[5]
  IC50: > 1000 nM
[6]
  IC50: > 1000 nM
[7]
  IC50: > 1000 nM
[8]
  IC50: 48 nM
[2]
  IC50: 20 nM
[9]
  half-life: 64 min
CYP2D6
  inhibition at 10 µM: 36%
CYP2C9
  inhibition at 10 µM: 37%

## O=C(Cc1cccnc1)N[C@H](Cc1ccc(Cl)cc1)c1nc2ccc(-c3cn[nH]c3)cc2c(=O)[nH]1
[1]
  IC50: 239 nM

## O=c1[nH]c([C@@H]2CNC[C@H]2c2ccc(F)cc2)nc2ccc(-c3cn[nH]c3)cc12
[1]
  IC50: 2 nM
[2]
  IC50: 7 nM

## N[C@H](Cc1ccc(F)cc1)c1nc2ccc(-c3cn[nH]c3)cc2c(=O)[nH]1
[3]
  IC50: > 1000 nM
CYP1A2
  inhibition at 10 µM: 19%
CYP3A4
  inhibition at 10 µM: 37%
[4]
  IC50: > 1000 nM
[1]
  IC50: 8 nM
[5]
  IC50: > 1000 nM
[6]
  IC50: > 1000 nM
[7]
  IC50: > 1000 nM
[8]
  IC50: 8 nM
[2]
  IC50: 17 nM
[9]
  half-life: 65 min
CYP2D6
  inhibition at 10 µM: 89%
CYP2C9
  inhibition at 10 µM: 36%

## NC(c1ccc(Cl)cc1)c1nc2ccc(-c3cn[nH]c3)cc2c(=O)[nH]1 (stereo unspecified)
[1]
  IC50: 10 nM
[2]
  IC50: 9 nM

## CN(C)CCNc1nc([C@@H]2CNC[C@H]2c2ccc(F)cc2)nc2ccc(-c3cn[nH]c3)cc12
[1]
  IC50: 371 nM
[2]
  IC50: 884 nM

## NCCC(=O)NC(c1ccc(Cl)cc1)c1nc2ccc(-c3cn[nH]c3)cc2c(=O)[nH]1 (stereo unspecified)
[1]
  IC50: 6 nM
[2]
  IC50: 21 nM

## N[C@@H](Cc1ccccc1)c1nc2ccc(-c3cn[nH]c3)cc2c(=O)[nH]1
[1]
  IC50: 12 nM
[2]
  IC50: 7 nM

## N[C@H](Cc1cccc(F)c1)c1nc2ccc(-c3cn[nH]c3)cc2c(=O)[nH]1
[1]
  IC50: 10 nM
[2]
  IC50: 9 nM

## N[C@H](Cc1cccc(Cl)c1)c1nc2ccc(-c3cn[nH]c3)cc2c(=O)[nH]1
[1]
  IC50: 13 nM
[2]
  IC50: 6 nM

## Cc1n[nH]cc1-c1ccc2nc([C@@H]3CNC[C@H]3c3ccccc3)[nH]c(=O)c2c1
[1]
  IC50: 7 nM
[2]
  IC50: 7 nM

## NC(c1cccc(Cl)c1)c1nc2ccc(-c3cn[nH]c3)cc2c(=O)[nH]1 (stereo unspecified)
[3]
  IC50: > 1000 nM
CYP1A2
  inhibition at 10 µM: 18%
CYP3A4
  inhibition at 10 µM: 75%
[4]
  IC50: > 1000 nM
[1]
  IC50: 13 nM
[5]
  IC50: > 1000 nM
[6]
  IC50: > 1000 nM
[10]
  IC50: 91 nM
[7]
  IC50: > 1000 nM
[8]
  IC50: 15 nM
[9]
  half-life: 46 min
CYP2D6
  inhibition at 10 µM: 89%
CYP2C9
  inhibition at 10 µM: 84%

## NCc1cccc(C(=O)NC(c2ccc(Cl)cc2)c2nc3ccc(-c4cn[nH]c4)cc3c(=O)[nH]2)c1 (stereo unspecified)
[1]
  IC50: 20 nM
[2]
  IC50: 28 nM

## O=c1[nH]c([C@@H]2CNC[C@H]2c2ccccc2)nc2ccc(-c3ccncc3)cc12
[1]
  IC50: 23 nM
[2]
  IC50: 29 nM

## COc1ccc(C[C@H](N)c2nc3ccc(-c4cn[nH]c4)cc3c(=O)[nH]2)cc1
[3]
  IC50: > 1000 nM
CYP1A2
  inhibition at 10 µM: 10%
CYP3A4
  inhibition at 10 µM: 53%
[4]
  IC50: > 1000 nM
[1]
  IC50: 4 nM
[5]
  IC50: > 1000 nM
[6]
  IC50: > 1000 nM
[7]
  IC50: > 1000 nM
[8]
  IC50: 16 nM
[2]
  IC50: 8 nM
[9]
  half-life: 21 min
CYP2D6
  inhibition at 10 µM: 76%
CYP2C9
  inhibition at 10 µM: 52%

## COc1cc(-c2cn[nH]c2)cc2c(=O)[nH]c([C@@H](N)Cc3cccc(F)c3)nc12
[1]
  IC50: 8 nM
[2]
  IC50: 26 nM

## CN(CCO)c1nc([C@@H](N)Cc2cccc(F)c2)nc2ccc(-c3cn[nH]c3)cc12
[1]
  IC50: 27 nM
[2]
  IC50: 284 nM

## O=c1[nH]c([C@@H]2CN(Cc3ccccc3)C[C@H]2c2ccccc2F)nc2ccc(-c3cn[nH]c3)cc12
[1]
  IC50: 49 nM
[2]
  IC50: 233 nM

## COc1cc(-c2cn[nH]c2)cc2c(=O)[nH]c(C(N)c3cccc(Cl)c3)nc12 (stereo unspecified)
[3]
  IC50: > 1000 nM
CYP1A2
  inhibition at 10 µM: 54%
CYP3A4
  inhibition at 10 µM: 80%
[4]
  IC50: > 1000 nM
[1]
  IC50: 8 nM
[5]
  IC50: > 1000 nM
[6]
  IC50: > 1000 nM
[7]
  IC50: > 1000 nM
[8]
  IC50: 8 nM
[2]
  IC50: 11 nM
[9]
  half-life: 51 min
CYP2D6
  inhibition at 10 µM: 63%
CYP2C9
  inhibition at 10 µM: 79%
